Measurements reported in the NIST ThermoML archive (doi:10.1016/j.tca.2015.03.027).
± gives the expanded uncertainty stated by the source.

Experiments:
[1] = molar heat capacity at constant pressure; wn = mass fraction of the nth substance listed; details: 320 K; 96 kPa; Liquid; Small sample (50 mg) DSC; w1 = 0.649
[2] = Crystal; DTA
[3] = Molar enthalpy of transition or fusion; details: Crystal; DSC
[4] = molar heat capacity at constant pressure; details: 290 K; 101.33 kPa; Crystal; Small sample (50 mg) DSC

[Br-].[Br-].[Ca+2] [calcium bromide] + O
molar heat capacity at constant pressure [1]: 75.67 ± 7.5 J/K/mol

O.O.O.O.O.O.[Br-].[Br-].[Ca+2] [calcium bromide hexahydrate]
Normal melting temperature [2]: 34.00 ± 2 °C
Molar enthalpy of transition or fusion [3]: 10.5 ± 0.335 kcal/mol
molar heat capacity at constant pressure [4]: 363.41 ± 37 J/K/mol
